Consider 40 compounds from the Deep4Chem optical property database.

A short description of this series: solvent given as SMILES.

Turning to `O=C1O/C(=C\c2cccs2)c2ccccc21`, under “in CC#N”, the emission maximum stood at 438 nm.
With `N#Cc1ccc(-n2c(-c3ccc(-c4ccc(-n5c6ccccc6c6ccccc65)cc4)s3)nc3c4ccccc4c4ccccc4c32)c2ccccc12`, where the note is “in ClCCl”, the emission maximum is given as 400 nm.
Regarding `O=Cc1ccc(-c2ccc(C3=CCCCC3)s2)s1`, the emission maximum came to 467 nm (in C1CCOC1); 485 nm (in CC#N); 444 nm (in CCCCCC); 498 nm (in CCO); 508 nm (in OCCOCCO); 483 nm (in c1ccncc1).
Consider `c1ccc(-c2nc(-c3ccccc3)nc(-n3c4ccccc4c4cc(-n5c6ccccc6c6ccccc65)ccc43)n2)cc1`, for which the emission maximum (in C1CCOC1) is 535.43 nm and the emission maximum (in Cc1ccccc1) came to 502.82 nm.
As to `Cc1cccc2cc(C)c3c4ccccc4[nH]c3c12`, the emission maximum (in ClCCl) is listed as 364 nm.
In the case of `Cc1nc2cccc(-c3nc4ccc([N+](=O)[O-])cc4[nH]3)c2c(=O)[nH]1`, where the note is “in CN(C)C=O”, the emission maximum worked out at 450 nm.
Take `CCn1c2ccc(/C=C/c3ccc4c(c3)c3cc(-c5nc6ccccc6s5)ccc3n4CC)cc2c2cc(-c3nc4ccccc4s3)ccc21`: the emission maximum turned out to be 408 nm (in C1CCOC1); 491 nm (in CC#N); 412 nm (in CCOC(C)=O); 449 nm (in CN(C)C=O); 442 nm (in ClCCl).
Turning to `Cc1ccc(CN2/C(=C/C=C3\CCCC(/C=C/C4=[N+](Cc5ccc(C)cc5)c5ccccc5C4(C)C)=C3Cl)C(C)(C)c3ccccc32)cc1`, where the note is “in CO”, the emission maximum is given as 813 nm.
As to `O=P(c1ccccc1)(c1ccccc1)n1c2ccccc2c2ccccc21`, the emission maximum by setting is: (in C1CCOC1) 360 nm; (in CC(C)=O) 406 nm; (in Cc1ccccc1) 372 nm; (in ClCCl) 355 nm.
The compound `COc1ccc2cc(-c3ccc(S(C)(=O)=O)cc3)oc(=O)c2c1` had an emission maximum (in CCO) of 410 nm; an emission maximum (in CCOC(C)=O) of 404 nm; an emission maximum (in CN(C)C=O) of 410 nm; an emission maximum (in CO) of 410 nm; an emission maximum (in ClC(Cl)Cl) of 408 nm.
In turn, `CC1(C)C(/C=C/C2=C(Oc3ccc(CCN=C=S)cc3F)C(=C/C=C3/N(CCCS(=O)(=O)[O-])c4ccccc4C3(C)C)/CCC2)=[N+](CCCS(=O)(=O)[O-])c2ccccc21` registered an emission maximum (in CO) of 797 nm.
Turning to `Cc1ccc(N2C(c3ccccc3NS(=O)(=O)c3ccc(C)cc3)=NC(c3ccccc3)C2c2ccccc2)cc1` (stereo unspecified), the emission maximum (in Cc1ccccc1) is on record as 375 nm.
In the case of `N#Cc1ccc(/C=C2\OC(=O)c3cc(N)ccc32)cc1`, the emission maximum was 485.44 nm (in CC#N); 482.16 nm (in CC(C)=O); 502.26 nm (in CC(C)CO); 496.03 nm (in CC(C)O); 498.26 nm (in CCCO); 502.77 nm (in CCO). Further, the emission maximum is 467.73 nm (in CCOC(C)=O), 444.84 nm (in CCOCC) and 503.52 nm (in CO).
On to `O=C1c2ccccc2-c2ccc(N3CCN(c4ccccc4)CC3)c3cccc1c23`, for which the emission maximum worked out at 529 nm (in C1CCCCC1); 583 nm (in C1CCOC1); 578 nm (in C1COCCO1); 614 nm (in CC1COC(=O)O1); 603 nm (in CC#N); 601 nm (in CC(C)=O). Also, the emission maximum is given as 590 nm (in CCCCCCCCO); 586 nm (in CCCCCO); 581 nm (in CCCCO); 586 nm (in CCCO); 589 nm (in CCO); 587 nm (in CCOC(C)=O). In addition, the emission maximum by setting is: (in CN(C)C=O) 602 nm; (in CO) 577 nm; (in CS(C)=O) 613 nm; (in Cc1ccccc1) 562 nm; (in ClC(Cl)Cl) 591 nm.
`O=C1CC(c2ccc(Cl)cc2)c2c(c3ccccc3c3nc4ccccc4nc23)O1` (stereo unspecified) showed an emission maximum (in ClC(Cl)Cl) of 434 nm.
The compound `F[B-]1(F)n2c(cc3c4ccccc4c4ccccc4c32)-c2ccc3ccccc3[n+]21` showed an emission maximum (in ClCCl) of 585 nm.
Regarding `COc1ccc(OC)c(-c2[nH]c(=O)n3c2-c2ccccc2C3=O)c1`, the emission maximum came out at 466 nm (in CC#N), 484 nm (in CO) and 462 nm (in ClCCl).
On to `CN(C)CCCN1c2ccccc2CCc2ccccc21`, for which the emission maximum runs as follows: (in CC#N) 348 nm; (in CO) 353 nm; (in O) 400 nm.
In the case of `CCCCCCC1(CCCCCC)c2cc(-c3ccc(-c4ccc(-c5ccc(-c6ccc7c(c6)C(CCCCCC)(CCCCCC)c6cc(-n8c9ccc(-n%10c%11ccccc%11c%11ccccc%11%10)cc9c9cc(-n%10c%11ccccc%11c%11ccccc%11%10)ccc98)ccc6-7)s5)c5nsnc45)s3)ccc2-c2ccc(-n3c4ccc(-n5c6ccccc6c6ccccc65)cc4c4cc(-n5c6ccccc6c6ccccc65)ccc43)cc21`, the emission maximum (in ClCCl) is 608 nm.
For `Cc1cc(C)c(C)c(-c2ccc3cc(C)c(=O)oc3c2)c1C`, the emission maximum is listed as 383 nm (in C1CCCCC1), 388 nm (in CC#N) and 394 nm (in CO).
Compound `C(=C\c1nc2c(c(N3CCOCC3)n1)CCCC2)/c1ccccc1` displayed an emission maximum (in ClCCl) of 333 nm.
As to `O=[N+]([O-])c1ccc(C2=Nc3sc(-c4ccccc4)n[n+]3[B-](F)(F)O2)cc1`, the emission maximum (in Cc1ccccc1) was 409 nm.
`c1ccc([B-]2(c3ccccc3)Oc3ccc4ccccc4c3-c3c4ccccc4cn[n+]32)cc1` registered an emission maximum (in Cc1ccccc1) of 555 nm.
As for `CC(=O)c1ccc(-c2ccc3c(c2)C(=O)c2cc(-c4ccc(C(C)=O)cc4)ccc2-3)cc1`, the emission maximum (in C1CCOC1) turned out to be 375 nm.
For the setting “in ClCCl”, `COC(=O)c1[nH]c(-c2ccc([N+](=O)[O-])cc2)c2nnc3ccc(OC)cc3c12` returned an emission maximum of 549 nm.
Under “in C1CCCCC1”, `N#Cc1cc(-c2ccccc2)c(N2c3ccccc3Oc3ccccc32)c(-c2ccccc2)c1` showed an emission maximum of 455 nm.
As to `O=C(c1ccncc1)c1ccc(-n2c3ccc(-n4c5ccccc5c5ccccc54)cc3c3cc(-n4c5ccccc5c5ccccc54)ccc32)cc1`, the emission maximum was 532.75 nm (in C1CCOC1), 481.09 nm (in Cc1ccccc1) and 487.5 nm (in c1cc(-c2cccc(-n3c4ccccc4c4ccccc43)c2)cc(-n2c3ccccc3c3ccccc32)c1).
In the case of `COc1ccc(C(=O)COc2c(C)c(=O)n3c(=O)c(C)c(COC(=O)c4ccccc4Cl)n23)cc1`, where the note is “in CCO”, the emission maximum is recorded as 460 nm.
The compound `COC1=[N+]2C(=C(c3ccc(C)cc3)c3ccc(OC)n3[B-]2(F)F)C=C1` came in with an emission maximum (in C1CCCCC1) of 525 nm; an emission maximum (in C1CCOC1) of 528 nm; an emission maximum (in CC#N) of 522 nm; an emission maximum (in CCOC(C)=O) of 526 nm; an emission maximum (in CO) of 523 nm; an emission maximum (in Cc1ccccc1) of 530 nm. Moreover, where the note is “in ClC(Cl)Cl”, the emission maximum is recorded as 529 nm.
As for `COc1nc(Cl)nc(Nc2ccc3c4c(cccc24)C(=O)c2ccccc2-3)n1`, the emission maximum is 537.92 nm (in CC#N); 526.87 nm (in CC(C)=O); 570.13 nm (in CC(C)O); 507.1 nm (in CCCCOCCCC); 520.02 nm (in CCOC(C)=O); 514.14 nm (in CCOCC). Moreover, the emission maximum is, setting by setting: (in CO) 578.03 nm; (in Cc1ccccc1) 518.13 nm; (in Clc1ccccc1) 524.93 nm; (in N#Cc1ccccc1) 526.04 nm; (in O=C1CCCCC1) 524.11 nm.
As to `O=C1OC(=O)c2cc(Oc3ccccc3)c3c4ccc5c6c(cc(Oc7ccccc7)c(c7ccc1c2c73)c64)C(=O)OC5=O`, the emission maximum (in C1CCOC1) turned out to be 560 nm, the emission maximum (in CN1CCCC1=O) is recorded as 595 nm and the emission maximum (in CN(C)C=O) came out at 572 nm.
Take `CC1(C)c2ccccc2N(c2ccc(-c3cnc(C#N)nc3)cc2)c2ccccc21`: the emission maximum runs as follows: (in Cc1ccccc1) 524 nm; (in N#Cc1ccc2c(c1)c1ccccc1n2-c1cccc(-n2c3ccccc3c3ccccc32)c1) 526 nm.
Regarding `C[Si]1(C)O[Si](C)(C)c2cc3c(-c4ccccc4)c4ccccc4nc3cc21`, for the setting “in ClCCl”, the emission maximum worked out at 502 nm.
For the compound `COc1ccc(-c2csc(/C(C#N)=C/c3ccc(C#N)cc3)n2)cc1`, the emission maximum is, setting by setting: (in CC#N) 561 nm; (in CCO) 555 nm; (in CN(C)C=O) 570 nm; (in Cc1ccccc1) 519 nm; (in ClCCl) 554 nm.
Turning to `CN(C)c1ccc(C#Cc2ncnc3ccccc23)cc1`, the emission maximum is, setting by setting: (in C1CCCCC1) 444 nm; (in C1CCOC1) 540 nm; (in CC#N) 573 nm; (in CS(C)=O) 583 nm; (in ClCCl) 560 nm.
As to `CCCCCCN1C(=O)c2cccc3c(-c4ccc(-c5cc(-c6ccc(OC)cc6)n(-c6ccccc6)n5)s4)ccc(c23)C1=O`, the emission maximum (in ClCCl) is 521 nm.
Compound `CC[n+]1nc2ccc(N(C)C)cc2c2cc(C)ccc21` showed an emission maximum (in O) of 542 nm.
Regarding `Cc1c2c(c(C)c3ccccc13)C1=CC3Nc4ccccc4NC3C=C12` (stereo unspecified), the emission maximum (in ClC(Cl)Cl) worked out at 502 nm.
For the setting “in ClCCl”, `COc1ccc(N(c2ccccc2)c2ccc3ccc4c(N(c5ccccc5)c5ccc(OC)cc5)ccc5ccc2c3c54)cc1` gave an emission maximum of 513 nm.
In turn, `COc1cccc(OC)c1-c1c2ccc(=[N+]3CCN(C(=O)OC(C)(C)C)CC3)cc-2oc2cc(N3CCN(C(=O)OC(C)(C)C)CC3)ccc12` had an emission maximum (in ClCCl) of 580 nm.
